Assay results taken from ChEMBL document CHEMBL3301472, “MMV Malaria Box HIV and cytotoxicity screening”.

What was measured:
[1] = MMV: MTT Cytotoxicity Assay Day 7 pi of Assay #10 (NO washout), U87-CD4-CCR5 cells, % cell death @ 5mM compound; format: toxicity, cell-based; conditions: human, u87-cd4-ccr5, 5000 µM
[2] = system: Human immunodeficiency virus 1; assay: MMV: HIV CXCR4-tropic env NL4-3 pseudovirus assay produces luciferase signal in lieu of replicating viral particles Day 3 pi, U87-CD4-CXCR4, % inhibition at 5 mM compound; format: functional; set-up: dose or concentration left out as unconfirmed; conditions: Human immunodeficiency virus 1, NL4-3, U87.CD4.CXCR4, 72 h
[3] = MMV: MTT Cytotoxicity Assay Day 7 pi of Assay #6 (compound washed out Day 1 pi), U87-CD4-CCR5 cells, % cell death @ 5mM compound; format: toxicity, cell-based; conditions: human, u87-cd4-ccr5, 5000 µM
[4] = MMV: MTT Cytotoxicity Assay Day 3 pi, U87-CD4-CXCR4 cells, % cell death @ 5mM compound; format: toxicity, cell-based; conditions: human, u87-cd4-cxcr4, 5000 µM
[5] = MMV: MTT Cytotoxicity Assay Day 7 pi of Assay #11 (NO washout), U87-CD4-CXCR4 cells, % cell death @ 5mM compound; format: toxicity, cell-based; conditions: human, u87-cd4-cxcr4, 5000 µM
[6] = MMV: MTT Cytotoxicity Assay Day 3 pi, U87-CD4-CCR5 cells, % cell death @ 5mM compound; format: toxicity, cell-based; conditions: human, u87-cd4-ccr5, 5000 µM
[7] = MMV: MTT Cytotoxicity Assay Day 7 pi of Assay #7 (compound washed out Day 1 pi), U87-CD4-CXCR4 cells, % cell death @ 5mM compound; format: toxicity, cell-based; conditions: human, u87-cd4-cxcr4, 5000 µM

Oc1ccc(-c2nc(-c3ccc4oc5ccc(-c6[nH]c(-c7ccc(O)cc7)nc6-c6ccccc6)cc5c4c3)c(-c3ccccc3)[nH]2)cc1
% Cell Death [1]: 56 | inhibition [2]: 1% | % Cell Death [3]: -12 | % Cell Death [4]: 46 | % Cell Death [5]: 89 | % Cell Death [6]: -2 | % Cell Death [7]: 17

CCOc1cc2c(cc1OCC)C(c1cc(OC)c(O)cc1Cl)NCC2 (configuration not stated)
% Cell Death [1]: 25 | inhibition [2]: 10% | % Cell Death [3]: 7 | % Cell Death [4]: 1 | % Cell Death [5]: 20 | % Cell Death [6]: 31 | % Cell Death [7]: -19

Cc1ccc(NC(=O)Nc2cccc(Cl)c2)cc1F
% Cell Death [1]: 8 | inhibition [2]: 0% | % Cell Death [3]: 12 | % Cell Death [4]: 26 | % Cell Death [5]: -5 | % Cell Death [6]: -7 | % Cell Death [7]: -22

CC(NCc1ccccc1)c1cc(Cl)ccc1O (configuration not stated)
% Cell Death [1]: 26 | inhibition [2]: 6% | % Cell Death [3]: -2 | % Cell Death [4]: 6 | % Cell Death [5]: -3 | % Cell Death [6]: 1 | % Cell Death [7]: -15

COc1ccc(CN2CCN(Cc3ccccc3)CC2)c(O)c1
% Cell Death [1]: 4 | inhibition [2]: -2% | % Cell Death [3]: -1 | % Cell Death [4]: -16 | % Cell Death [5]: 10 | % Cell Death [6]: 16 | % Cell Death [7]: 53

CCOc1cc2c(cc1OCC)C(c1cc(C)c(O)c(C)c1)NCC2.Cl (configuration not stated)
% Cell Death [1]: -3 | inhibition [2]: 5% | % Cell Death [3]: 18 | % Cell Death [4]: 16 | % Cell Death [5]: -11 | % Cell Death [6]: 4 | % Cell Death [7]: -10

CSc1ccccc1C(=O)Nc1nc(-c2ccccn2)cs1
% Cell Death [1]: 3 | inhibition [2]: 4% | % Cell Death [3]: 18 | % Cell Death [4]: 86 | % Cell Death [5]: 2 | % Cell Death [6]: 28 | % Cell Death [7]: 28

COc1cccc(NC(=O)Cn2c(C)c(C#N)c3ccccc32)c1
% Cell Death [1]: 12 | inhibition [2]: 8% | % Cell Death [3]: 29 | % Cell Death [4]: 47 | % Cell Death [5]: -1 | % Cell Death [6]: 23 | % Cell Death [7]: -5

Cc1cc(C)cc(Nc2cc(C)nc3nc(C(F)(F)F)nn23)c1
% Cell Death [1]: -23 | inhibition [2]: 7% | % Cell Death [3]: 29 | % Cell Death [4]: 26 | % Cell Death [5]: -5 | % Cell Death [6]: 10 | % Cell Death [7]: -6

COc1ccc2nc(C)cc(Nc3cccc(O)c3)c2c1.Cl
% Cell Death [1]: 43 | inhibition [2]: 7% | % Cell Death [3]: 10 | % Cell Death [4]: 39 | % Cell Death [5]: 76 | % Cell Death [6]: 16 | % Cell Death [7]: 0

CCN(CC)c1cc(C)c2cc(NC(=O)c3cccc(OC)c3)ccc2n1
% Cell Death [1]: 39 | inhibition [2]: 7% | % Cell Death [3]: 3 | % Cell Death [4]: 5 | % Cell Death [5]: -2 | % Cell Death [6]: -1 | % Cell Death [7]: -25

CCN(CC)CCCNc1ccnc2cc3ccccc3cc12
% Cell Death [1]: 60 | inhibition [2]: 5% | % Cell Death [3]: 51 | % Cell Death [4]: 35 | % Cell Death [5]: 85 | % Cell Death [6]: 41 | % Cell Death [7]: 55

Cc1ccc2cc3c(N)c4c(C)ccc(C)c4nc3nc2c1
% Cell Death [1]: 18 | inhibition [2]: 5% | % Cell Death [3]: 46 | % Cell Death [4]: -14 | % Cell Death [5]: 31 | % Cell Death [6]: -9 | % Cell Death [7]: -5

O=C(Cc1ccccc1)NC(c1ccc(Cl)cc1)c1c(O)ccc2ccccc12 (configuration not stated)
% Cell Death [1]: 2 | inhibition [2]: 3% | % Cell Death [3]: 18 | % Cell Death [4]: 23 | % Cell Death [5]: -16 | % Cell Death [6]: 11 | % Cell Death [7]: -8

Br.CCn1c2c(c(=N)c3c1CCC3)CCCC2
% Cell Death [1]: -14 | inhibition [2]: -2% | % Cell Death [3]: -8 | % Cell Death [4]: 30 | % Cell Death [5]: -11 | % Cell Death [6]: -56 | % Cell Death [7]: -30

CCCCc1c(CCC)c(=N)c2ccccc2n1C.I
% Cell Death [1]: -4 | inhibition [2]: 7% | % Cell Death [3]: 27 | % Cell Death [4]: 21 | % Cell Death [5]: -12 | % Cell Death [6]: -13 | % Cell Death [7]: 55

N=c1n(CCN2CCCCC2)c2ccccc2n1CC(=O)c1ccc(Cl)c(Cl)c1
% Cell Death [1]: -3 | inhibition [2]: 0% | % Cell Death [3]: -5 | % Cell Death [4]: 9 | % Cell Death [5]: -14 | % Cell Death [6]: -21 | % Cell Death [7]: 4

O=C(Nc1ccc(Br)cc1)Nc1cccc(Cl)c1
% Cell Death [1]: 44 | inhibition [2]: 9% | % Cell Death [3]: 8 | % Cell Death [4]: 22 | % Cell Death [5]: 64 | % Cell Death [6]: 9 | % Cell Death [7]: -4

CCCCCC(=O)N1c2ccccc2N=C2CC(c3ccc(OC)c(OC)c3)CC(O)=C2C1c1ccc(C(F)(F)F)cc1 (configuration not stated)
% Cell Death [1]: 16 | inhibition [2]: 2% | % Cell Death [3]: 5 | % Cell Death [4]: 14 | % Cell Death [5]: -20 | % Cell Death [6]: 11 | % Cell Death [7]: -21

Cc1cc(Nc2ccc(Cl)cc2)n2nc(C(F)(F)F)nc2n1
% Cell Death [1]: 56 | inhibition [2]: 2% | % Cell Death [3]: 46 | % Cell Death [4]: 12 | % Cell Death [5]: -18 | % Cell Death [6]: 27 | % Cell Death [7]: -20

Br.Cc1ccc(C)c(-c2csc(Nc3ccc(C)c(C)c3)n2)c1
% Cell Death [1]: 48 | inhibition [2]: -1% | % Cell Death [3]: 5 | % Cell Death [4]: 21 | % Cell Death [5]: 28 | % Cell Death [6]: -10 | % Cell Death [7]: 39

COc1ccc(Nc2nc(N/N=C/c3ccc(O)cc3)nc(Nc3ccc([N+](=O)[O-])cc3)n2)cc1
% Cell Death [1]: 11 | inhibition [2]: 7% | % Cell Death [3]: 33 | % Cell Death [4]: 23 | % Cell Death [5]: 0 | % Cell Death [6]: 11 | % Cell Death [7]: 50

COc1ccc(C2NCCc3c2[nH]c2ccccc32)cc1CN1CCN(c2ccc(F)cc2)CC1.Cl (configuration not stated)
% Cell Death [1]: 14 | inhibition [2]: 3% | % Cell Death [3]: 24 | % Cell Death [4]: 35 | % Cell Death [5]: -62 | % Cell Death [6]: 27 | % Cell Death [7]: -8

CN(C)CCNc1cc(-c2ccccc2)nc2ccccc12
% Cell Death [1]: 71 | inhibition [2]: 5% | % Cell Death [3]: 6 | % Cell Death [4]: 18 | % Cell Death [5]: 85 | % Cell Death [6]: 26 | % Cell Death [7]: -12

COc1ccc(C(C)=O)cc1N1C(=O)C2C(C1=O)C1(c3ccccc3)C(=O)C2(c2ccccc2)C(c2ccc(C)cc2)=C1c1ccc(C)cc1 (configuration not stated)
% Cell Death [1]: 16 | inhibition [2]: 3% | % Cell Death [3]: 2 | % Cell Death [4]: 39 | % Cell Death [5]: 5 | % Cell Death [6]: 28 | % Cell Death [7]: 14

Cc1ccnc(NC(c2cccc(OCc3ccccc3)c2)c2ccc3cccnc3c2O)c1 (configuration not stated)
% Cell Death [1]: -16 | inhibition [2]: 1% | % Cell Death [3]: 49 | % Cell Death [4]: -12 | % Cell Death [5]: 27 | % Cell Death [6]: 19 | % Cell Death [7]: 37
